Like-named read-outs stand apart in the source and are kept apart here.
Experiments:
IRAK4 [1] = molecular target: T1, IRAK4 (Homo sapiens (Human), UniProt Q9NWZ3); assay: IRAK4 MSD degradation in OCI-LY10; assay type: cell-based; settings: MSD
Method in brief: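 Remaining IRAK4 quantified by electrochemiluminescent MSD sandwich assay with two anti-IRAK4 antibodies. Compounds were dosed as 8 concentrations in 1:3 steps from a 1 to 10 μM final top on OCI-LY10 cells, incubated 4 to 24 h at 37° C. under 5% CO2. DC50 fitted with a three-parameter logistic curve.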

OCI-LY10 = assay: CTG Cell Viability Assay - OCI-LY10; assay type: cell-based, human; settings: OCI-LY10, 4 days, read-out: CTG Cell Viability Assay - OCI-LY10: Average external-IC50
Method in brief: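 Viability read by CellTiter-Glo luminescence after 4 days at 37° C under 5% CO2 with compound (top 10 μM final, 1:3 steps, 9 doses, DMSO 0.2%). Three-parameter logistic fit gave IC50.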

IRAK4 [2] = molecular target: T1, IRAK4; assay: IRAK4 degradation in human whole blood lymphocyte - flow cytometry; assay type: cell-based; settings: read-out: IRAK4 degradation in whole blood lymphocyte-Flow cytometry: Average external Abs IC50
Procedure: (§1) Human whole blood IRAK4 degradation flow assay. Whole blood was collected in heparinized tubes and plated on the same day as draw (day 0). Whole blood was aliquoted into deep well plates. Compound plates were prepared and a 10 point, 5-fold dilution was performed with a final DMSO concentration of 0.1%. Compound was added to whole blood deep well plate, sealed and incubated at 37° C., 5% CO2 for 20 hours (for 4 hour treatment, compounds were prepared and added the following day). Following the treatment incubation period (day 1), BD lyse fix (BD #558049) was added to the whole blood plate, placed on plate shaker for 30 seconds and incubated for 10 mins at room temperature. Whole blood was then spun down and washed two times with PBS/0.5% BSA, aspirated to pellet and placed into −80° C. freezer until further processing for flow. On the flow run day, whole blood plates were thawed and samples were transferred to PCR plates. The pre-perm staining cocktail (CD3 Ax488/CD8 BUV805/CD14 BUV395/CD16/56 BV711/CD19 BV785) was added to samples and incubated for 30 minutes at room temperature. Samples were washed two times and permeabilized with Methanol for 10 minutes at 4° C. Samples were washed two times and the post-perm staining cocktail (CD4 PE/IRAK4 Ax647 BD #560315) was added and incubated for 30 minutes at room temperature. Samples were washed two times with PBS/BSA and run on a BD LSRFortessa. Mononuclear cells are gated by SSCH/FSCH and single cells. Monocytes are then gated through CD14 positive gate and lymphocytes are gated through CD14 negative gate. To determine absolute DC50 and max degradation values, MFI values were normalized to DMSO max and 20 hour 10 μM min control. Twenty hour dose curves were calculated using a 4 parameter logistic regression curve fit, no constraints (Top doses were removed if hook effects were observed and the bottom was constrained to 0).

IRAK4 [3] = molecular target: T1, IRAK4; assay: IRAK4 degradation in human whole blood monocyte - flow cytometry; assay type: cell-based; settings: read-out: IRAK4 degradation in whole blood monocyte-Flow cytometry: Average external Abs IC50
Procedure: as §1

TNFα [4] = assay: Human whole blood LPS TNFα assay; assay type: cell-based; settings: 20 h pretreatment, LPS 5 h, read-out: IRAK4 human whole blood LPS TNFa inhibition: Average external-IC50
Procedure: Human Whole blood LPS TNFα assay. Whole blood was collected fresh and plated same day into 96 well plates at 180 μL per well. Compound plates were prepared in DMSO as 8-point dose curves in duplicate, starting dose 2 μM, 5-fold. Compounds are added 20 μL into blood for final 200 μL per well. Compound and cells were incubated at 37° C., 5% CO2 for 20 hours. After twenty hours of pretreatment with the compounds, LPS (01 1 1:B4) (Sigma #L2637) was added at 100 ng/ml final concentration and blood incubated an additional five hours at 37° C., 5% CO2. Following assay completion, whole blood plates were spun down at 2000 rpm for 15 minutes at 4° C. 50 μL of plasma was carefully removed and placed into a new 96 well Costar (#3879) plate and stored at −80° C. until further analysis. Meso scale Discovery (MSD) human V-plex assays were used to measure cytokine levels. On day of cytokine analysis, plasma samples were thawed, diluted with V-plex diluent #2, and directly to MSD plates. Assay was further completed per standard manufacturer's protocol. Cytokine data was normalized to LPS stimulated and unstimulated controls. Prism Graphpad was used to generate IC50 using 4 parameter logistic regression curve, free-fit.

TNFα [5] = assay: Human PBMC LPS TNFα assay; assay type: cell-based; settings: hPBMC, LPS stimulation, read-out: IRAK4 hPBMC LPS TNF-α inhibition: Average external-IC50
Procedure: Human PBMC LPS TNFα assay. Frozen PBMCs were thawed into RPMI with 10% FBS/1% penicillin/streptomycin and same day plated into 96 well plates at 200,000 PBMC/[…] media per well. Compound plates were prepared in DMSO with D300 cassette as 8-point dose curves in duplicate, starting dose 2 μM, 5-fold. Compounds are added 200 nL into cells for final 200 μL per well. Compound and cells were incubated at 37° C., 5% CO2 for 20 hours. After twenty hours of pretreatment with the compounds, LPS (01 1 1:B4) (Sigma #L2637) was added at 100 ng/ml final concentration and PBMCs incubated an additional five hours at 37° C., 5% CO2. Following assay completion, PBMC plates were spun down at 2000 rpm for 10 minutes. 100 uL of supernatant was carefully removed and placed into a new 96 well Costar (#3879) plate and stored at −80° C. until further analysis. Meso scale Discovery (MSD) human V-plex assays were used to measure cytokine levels. On day of cytokine analysis, supernatant samples were thawed, diluted with V-plex diluent #2, and directly to MSD plates. Assay was further completed per standard manufacturer's protocol. Cytokine data was normalized to LPS stimulated and unstimulated controls. Prism Graphpad was used to generate IC50 using 4 parameter logistic regression curve, free-fit.

[6] = OCI-LY10, 4 hrs, read-out: IRAK4 MSD degradation in OCI-LY10 at 4 hrs: Average external-Abs DC50

T1 sequence (Q9NWZ3 whole entry): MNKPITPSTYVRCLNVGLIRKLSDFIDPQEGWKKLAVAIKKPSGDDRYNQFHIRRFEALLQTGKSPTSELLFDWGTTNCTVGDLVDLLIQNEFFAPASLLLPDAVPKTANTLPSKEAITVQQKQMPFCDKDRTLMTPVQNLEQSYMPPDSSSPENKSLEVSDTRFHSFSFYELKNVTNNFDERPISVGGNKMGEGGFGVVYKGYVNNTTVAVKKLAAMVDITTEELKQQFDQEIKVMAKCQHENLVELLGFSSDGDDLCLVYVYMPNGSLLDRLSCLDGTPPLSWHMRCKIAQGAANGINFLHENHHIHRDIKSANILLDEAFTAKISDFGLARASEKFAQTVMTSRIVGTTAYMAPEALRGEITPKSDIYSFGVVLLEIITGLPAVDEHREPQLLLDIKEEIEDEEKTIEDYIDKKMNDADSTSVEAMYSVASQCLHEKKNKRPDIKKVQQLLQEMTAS

Row | SMILES | DC50 (IRAK4 [1]; [6]) | DC50 (IRAK4 [1]; OCI-LY10, 24 hrs, read-out: IRAK4 MSD degradation in OCI-LY10 at 24 hrs: Average external-Abs DC50) | IC50 (OCI-LY10; Homo sapiens, OCI-Ly10, 96 h) | DC50 (IRAK4 [2]) | DC50 (IRAK4 [3]) | IC50 (IRAK4 [3]) | IC50 (TNFα [4]) | IC50 (OCI-LY10) | IC50 (TNFα [5])
1 | Cn1c(=O)n(C2CCC(=O)NC2=O)c2cccc(CCCOCCOCCNC(=O)[C@H]3CC[C@H](n4cc(NC(=O)c5coc(-c6ccnc(NCC7CC7)c6)n5)c(C(F)F)n4)CC3)c21 (stereo partly shown) [I-1] | < 10 nM | 10 to 100 nM | 50 to 100 nM | 100 to 500 nM | 100 to 500 nM | – | – | – | –
2 | O=C1CCC(n2c(=O)oc3cc(CCCOCCOCCNC[C@H]4CC[C@H](n5cc(NC(=O)c6coc(-c7ccnc(NCC8CC8)c7)n6)c(C(F)F)n5)CC4)ccc32)C(=O)N1 (stereo partly shown) [I-3] | < 10 nM | – | > 1000 nM | < 50 nM | – | < 50 nM | – | – | –
3 | O=C1CCC(n2c(=O)oc3c(CCCOCCNC(=O)[C@H]4CC[C@H](n5cc(NC(=O)c6coc(-c7ccnc(NCC8CC8)c7)n6)c(C(F)F)n5)CC4)cccc32)C(=O)N1 (stereo partly shown) [I-5] | < 10 nM | – | < 50 nM | 100 to 500 nM | 100 to 500 nM | – | > 1000 nM | – | –
4 | Cn1c(=O)n(C2CCC(=O)NC2=O)c2cccc(CCCOCCOCCNC[C@H]3CC[C@H](n4cc(NC(=O)c5coc(-c6ccnc(NCC(F)(F)F)c6)n5)c(C(N)=O)n4)CC3)c21 (stereo partly shown) [I-6] | < 10 nM | – | > 1000 nM | < 50 nM | – | < 50 nM | > 1000 nM | – | –
5 | Cn1c(=O)n(C2CCC(=O)NC2=O)c2ccc(CCCOCCNC[C@H]3CC[C@H](n4cc(NC(=O)c5coc(-c6ccnc(NCC(F)(F)F)c6)n5)c(C(N)=O)n4)CC3)cc21 (stereo partly shown) [I-8] | 10 to 100 nM | – | > 1000 nM | < 50 nM | – | < 50 nM | > 1000 nM | – | –
6 | Cn1c(=O)n(C2CCC(=O)NC2=O)c2ccc(CCCCOCCCCNC[C@H]3CC[C@H](n4cc(NC(=O)c5coc(-c6ccnc(NCC(F)(F)F)c6)n5)c(C(N)=O)n4)CC3)cc21 (stereo partly shown) [I-9] | < 10 nM | – | > 1000 nM | 50 to 100 nM | – | < 50 nM | > 1000 nM | – | –
7 | NC(=O)c1nn([C@H]2CC[C@H](CNCCCOCCCc3cccc4c3oc(=O)n4C3CCC(=O)NC3=O)CC2)cc1NC(=O)c1coc(-c2ccnc(NCC(F)(F)F)c2)n1 (stereo partly shown) [I-12] | 10 to 100 nM | – | 500 to 1000 nM | 100 to 500 nM | 500 to 1000 nM | – | 500 to 1000 nM | – | –
8 | CN(C[C@H]1CN(CCCc2ccc3c(c2)n(C)c(=O)n3C2CCC(=O)NC2=O)CCO1)C(=O)[C@H]1CC[C@H](n2cc(NC(=O)c3coc(-c4ccnc(NCC5CC5)c4)n3)c(C(F)F)n2)CC1 (stereo partly shown) [I-18] | < 10 nM | – | 50 to 100 nM | 100 to 500 nM | – | < 50 nM | 100 to 500 nM | – | –
9 | CN(CC1CCN(CCC#Cc2ccc3c(c2)n(C)c(=O)n3C2CCC(=O)NC2=O)CC1)C(=O)[C@H]1CC[C@H](n2cc(NC(=O)c3coc(-c4ccnc(NCC5CC5)c4)n3)c(C(F)F)n2)CC1 (stereo partly shown) [I-27] | < 10 nM | – | < 50 nM | < 50 nM | – | < 50 nM | 100 to 500 nM | – | –
10 | CN(CCCOCCCc1cccc2c1n(C)c(=O)n2C1CCC(=O)NC1=O)C(=O)[C@H]1CC[C@H](n2cc(NC(=O)c3coc(-c4ccnc(NCC(F)(F)F)c4)n3)c(C(N)=O)n2)CC1 (stereo partly shown) [I-28, N-[3-carbamoyl-1-[4-[3-[3-[1-(2,6-dioxo-3-piperidyl)-3-methyl-2-oxo-benzimidazol-4-yl]propoxy]propyl-methylcarbamoyl]cyclohexyl]pyrazol-4-yl]-2-[2-(2,2,2-trifluoroethylamino)-4-pyridyl]oxazole-4-carboxamide] | < 10 nM | – | – | 100 to 500 nM | 50 to 100 nM | – | > 1000 nM | < 50 nM | –
11 | CN(CCCOCCCc1cccc2c1n(C)c(=O)n2C1CCC(=O)NC1=O)C(=O)[C@H]1CC[C@H](n2cc(NC(=O)c3coc(-c4ccnc(NCC(F)(F)F)c4)n3)c(C(N)=O)n2)CC1 (stereo partly shown) [I-29] | < 10 nM | – | – | 500 to 1000 nM | 500 to 1000 nM | – | > 1000 nM | > 1000 nM | –
12 | CN(C[C@@H]1CN(CCCc2ccc3c(c2)n(C)c(=O)n3C2CCC(=O)NC2=O)CCO1)C[C@H]1CC[C@H](n2cc(NC(=O)c3coc(-c4ccnc(NCC5CC5)c4)n3)c(C(C)(C)O)n2)CC1 (stereo partly shown) [I-33] | < 10 nM | – | > 1000 nM | < 50 nM | 500 to 1000 nM | – | – | – | 500 to 1000 nM
13 | CN(CCCCOCCCCc1cccc2c1n(C)c(=O)n2C1CCC(=O)NC1=O)C[C@H]1CC[C@H](n2cc(NC(=O)c3coc(-c4ccnc(NCC5CC5)c4)n3)c(C(F)F)n2)CC1 (stereo partly shown) [I-67] | < 10 nM | – | < 50 nM | 50 to 100 nM | 50 to 100 nM | – | – | – | 50 to 100 nM
14 | CN(CC1CCN(Cc2cccc3c2n(C)c(=O)n3C2CCC(=O)NC2=O)CC1)C[C@H]1CC[C@H](n2cc(NC(=O)c3coc(-c4ccnc(NCC5CC5)c4)n3)c(C(F)F)n2)CC1 (stereo partly shown) [I-76] | < 10 nM | – | < 50 nM | 50 to 100 nM | 50 to 100 nM | – | – | – | < 50 nM
15 | O=C1CCC(n2c3ccccc3c3c(CCCOCCOCCNC[C@H]4CC[C@H](n5cc(NC(=O)c6coc(-c7ccnc(NCC8CC8)c7)n6)c(C(F)F)n5)CC4)ccnc32)C(=O)N1 (stereo partly shown) [I-92] | 10 to 100 nM | – | 100 to 500 nM | 500 to 1000 nM | 100 to 500 nM | – | – | – | –

— patent publication US11352350B2, “IRAK degraders and uses thereof” (Kymera Therapeutics, Inc., priority 2018, dated 2022)
